{
  "source": "patent US8530453B2",
  "about": "“Compounds and methods for the treatment of pain and other diseases” (Aquilus Pharmaceuticals, Inc., priority 2009, dated 2013)",
  "key": {"humans": {"tested_on": "humans", "conditions": "clinical; cited from earlier work"}, "mechanical nociception": {"tested_on": "mechanical nociception", "conditions": "in vivo; cited from earlier work"}, "[1]": {"tested_on": "chronic constriction injury (CCI)-mouse model", "conditions": "epineural daily injections, after the third day; cited from earlier work"}, "[2]": {"assay": "In-vitro mouse microsomal stability", "format": "in vitro ADME", "conditions": "compound 1 microMolar, at T = 60 minutes; for % Mean Remaining Parent with NADPH (%): mouse microsomes 0.3 mg/mL, 37 C; for % Mean Remaining Parent without NADPH (%): mouse microsomes, control omitting NADPH", "method": "Human and mouse microsomal stability was determined for select compounds following the method of Houston (Houston, J B; Biochem. Pharmacol. 47, (1994), 1469).\n1 μM concentration of compound and seperate human and mouse microsomes (0.3 mg/mL, BD bioscience) were used in the in-vitro assay. To ensure proper energy supply for microsomal degradation of compound, an energy regenerating system comprised of 100 mM potassium phosphate, 2 mM NADPH, 3 mM MgCl2, pH=7.4. and the microsomal protein is added to each sample and the resulting suspension is then incubated in duplicate for 60 min at 37° C. in a rotary shaker. A control is run for each test agent in duplicate omitting NADPH to detect NADPH-free degradation. At T=0 and T=60 min., an aliquot is removed from each experimental and control reaction and then mixed with an equal volume of ice-cold Stop Solution (consisting of 0.3% acetic acid in acetonitrile containing haloperidol and diclofenac as internal standards). Stopped reactions are then incubated for at least ten minutes at −20° C., and an additional volume of water is then be added. The samples are then centrifuged to remove precipitated protein, and the supernatants are then analyzed by LC-MS/MS to determine the percentage of compound remaining. The LC-MS/MS system used was an Agilent 6410 mass spectrometer coupled with an Agilent 1200 HPLC and a CTC PAL chilled autosampler, all controlled by MassHunter software (Agilent), or an ABI2000 mass spectrometer coupled with an Agilent 1100 HPLC and a CTC PAL chilled autosampler, all controlled by Analyst software (ABI). After separation on a C18 reverse phase HPLC column (Agilent, Waters, or equivalent) using an acetonitrile-water gradient system, peaks were analyzed by mass spectrometry (MS) using ESI ionization in MRM mode."}, "[3]": {"target": "Catalytic domain of MMP-9 (human recombinant) (Homo sapiens, UniProt P14780)", "sequence (P14780 107-444 limits assumed)": "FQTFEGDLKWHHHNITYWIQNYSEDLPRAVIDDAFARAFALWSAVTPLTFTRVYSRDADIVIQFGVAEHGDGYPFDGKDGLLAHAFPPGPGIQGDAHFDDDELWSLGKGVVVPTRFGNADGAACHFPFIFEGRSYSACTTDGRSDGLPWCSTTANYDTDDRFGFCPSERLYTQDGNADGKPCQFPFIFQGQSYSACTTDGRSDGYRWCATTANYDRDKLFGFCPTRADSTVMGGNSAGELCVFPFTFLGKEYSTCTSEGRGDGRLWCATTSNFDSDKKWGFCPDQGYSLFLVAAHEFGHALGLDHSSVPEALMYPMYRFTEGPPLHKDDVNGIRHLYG", "assay": "biochemical", "conditions": "read-out: Average Percent Inhibition (MMP-9)", "procedure": "A concentration of MMP inhibitor of the present invention was tested (1 microMolar) in duplicate runs. […] The mixture of enzyme and compound in assay buffer was then thoroughly mixed and incubated for 60 minutes at 37° C. Upon the completion of incubation, the assay was started by the addition of 10 μM of fluorescent substrate DNP-Pro-Cha-Gly-Cys(Me)-His-Ala-Lys(n-Me-Abz)-NH2 [SEQ ID NO: 1][Cha=β-cyclohexylalanyl; Abz=2-aminobenzoyl(anthraniloyl)] (Kd˜7 microMolar). The fluorescent product, DnpPChaG, was then measured at excitation of 365 nm and emission 450 nm by an automatic plate multireader at 37° C."}, "[4]": {"tested_on": "spinal nerve ligation (SNL) mouse model, mechanical allodynia", "assay": "Intraperitoneal (i.p.) administration in the SNL mouse model of pain, von Frey tactile allodynia test", "format": "in vivo", "from_the_text": "To measure the neuropathic pain inhibiting affects of the MMP inhibitors of the present invention, the spinal nerve ligation (SNL) mouse model was run on a select number of compounds. This model which began with the work of Bennet and coworkers (Bennet, G. J. et al. Pain, 33, (1988), 87-107) and was optimized by Kim and Chung (Kim, S. H.; Chung, J. M. Pain, 50, (1992), 355-363) entails first, under magnification, the removal of one-third of the transverse process and then identifying and then dissecting free the L5 spinal nerve from the adjacent L4 spinal nerve in the mouse. The L5 spinal nerve is then tightly ligated using 6.0 silk suture. The nerve injury leads to hyperalgesia which manifests itself by enhanced responses to mechanical, heat and/or cooling stimuli. In this case, mechanical hyperalgesia is tested via Von Frey monofilaments in which filaments of varying thicknesses and bending force are individually applied to the plantar surface of the foot of the mouse. […]\n(§1) Tactile Allodynia Test. Mechanical allodynia was measured using the calibrated von Frey filaments (Semmes-Weinstein monofilaments; Stoelting, Wood Dale, Ill., U.S.A.). […] The Fifty percent paw withdrawal threshold response was determined by sequentially increasing or decreasing the stimulus strength according to the “up-down method” of Dixon (Annual Review Pharmacology Toxicology, 20, (1980), 441-462). […]"}, "[5]": {"tested_on": "spinal nerve ligation (SNL) mouse model, mechanical allodynia", "assay": "Intrathecal (i.t.) administration in the SNL mouse model of pain, von Frey tactile allodynia test", "format": "in vivo", "conditions": "for 50% paw withdrawal threshold, mean, Day (-2) Pre-operative Baseline: group baseline prior to SNL injury, before treatment, FVB male mice", "from_the_text": "To measure the neuropathic pain inhibiting affects of the MMP inhibitors of the present invention, the spinal nerve ligation (SNL) mouse model was run on a select number of compounds. This model which began with the work of Bennet and coworkers (Bennet, G. J. et al. Pain, 33, (1988), 87-107) and was optimized by Kim and Chung (Kim, S. H.; Chung, J. M. Pain, 50, (1992), 355-363) entails first, under magnification, the removal of one-third of the transverse process and then identifying and then dissecting free the L5 spinal nerve from the adjacent L4 spinal nerve in the mouse. The L5 spinal nerve is then tightly ligated using 6.0 silk suture. The nerve injury leads to hyperalgesia which manifests itself by enhanced responses to mechanical, heat and/or cooling stimuli. In this case, mechanical hyperalgesia is tested via Von Frey monofilaments in which filaments of varying thicknesses and bending force are individually applied to the plantar surface of the foot of the mouse. The threshold force necessary for paw withdrawal decreases dramatically after the nerve surgery. Potent pain inhibitors will reverse this affect resulting in greater force needing to be applied to cause the rodent paw to withdrawal.\nFollowing preoperative baseline (Day −2) paw threshold measurement, FVB male mice were subjected to SNL injury (Day −1). […] Over the course of the study, paw withdrawal threshold of these animals was measured in response to mechanical stimulation using the von Frey Monofilament Test. […]\nas §1"}},
  "data": [
    {"smiles": "CNC(=O)[C@@H](NC(=O)[C@H](CC(C)C)[C@H](O)C(=O)NO)C(C)(C)C", "note": "[Marimastat]", "values": [
      {"measurement": "Toxicities in humans (in words)", "setting": "humans", "result": "time-dependent and dose-dependent musculoskeletal toxicities (arthralgia, myalgia, tendinitis)"}
    ]},
    {"smiles": "CNC(=O)[C@H](Cc1c[nH]c2ccccc12)NC(=O)[C@@H](CC(=O)NO)CC(C)C", "note": "[GM6001]", "values": [
      {"measurement": "Effect on mechanical nociception (in words)", "setting": "mechanical nociception", "result": "found to attenuate mechanical nociception"}
    ]},
    {"smiles": "CC(C)C[C@H](CC(=O)NO)C(=O)N[C@@H](Cc1ccc2ccccc2c1)C(=O)N[C@@H](C)C(N)=O", "note": "[TAPI-0]", "values": [
      {"measurement": "Effect on mechanical allodynia and thermal hyperalgesia (in words)", "setting": "[1]", "result": "able to block both mechanical allodynia and thermal hyperalgesia"}
    ]},
    {"smiles": "[2H]C([2H])([2H])c1ccc(C#Cc2ccc(S(=O)(=O)N[C@H](Cc3c[nH]c4ccccc34)C(=O)O)s2)cc1", "note": "[Compound 10, (R)-3-(1H-Indol-3-yl)-2-[5-(4-trideuteromethyl-phenylethynyl)-thiophene-2-sulfonylamino]-propionic acid-(D3, 98%)]", "values": [
      {"measurement": "% Mean Remaining Parent with NADPH (%)", "setting": "[2]", "result": 85, "unit": "%"},
      {"measurement": "% Mean Remaining Parent without NADPH (%)", "setting": "[2]", "result": 91, "unit": "%"},
      {"measurement": "inhibition at 1 µM", "setting": "[3]", "result": 78, "unit": "%"},
      {"measurement": "Reversal of mechanical allodynia (in words)", "setting": "[4]; i.p. approx. 3.3 mg/Kg daily", "result": "complete reversal of mechanical alodynia by day 5"},
      {"measurement": "Duration of effect after last injection (in words)", "setting": "[4]; i.p., 48 hours (day 6) from the last injection (day 4)", "result": "rather prolonged effect"},
      {"measurement": "50% paw withdrawal threshold, mean, Day (-2) Pre-operative Baseline", "setting": "[5]", "result": 1.268, "unit": "g"},
      {"measurement": "Reversal of allodynia (in words)", "setting": "[5]; i.t., as compared to vehicle and compound #5", "result": "almost complete reversal of allodynia"}
    ]},
    {"smiles": "Cc1ccc(C#Cc2ccc(S(=O)(=O)N[C@H](Cc3c[nH]c4ccccc34)C(=O)O)s2)cc1", "note": "[Compound 5, (R)-3-(1H-Indol-3-yl)-2-(5-p-tolylethynyl-thiophene-2-sulfonylamino)-propionic acid]", "values": [
      {"measurement": "% Mean Remaining Parent with NADPH (%)", "setting": "[2]", "result": 83, "unit": "%"},
      {"measurement": "% Mean Remaining Parent without NADPH (%)", "setting": "[2]", "result": 88, "unit": "%"},
      {"measurement": "50% paw withdrawal threshold, mean, Day (-2) Pre-operative Baseline", "setting": "[5]", "result": 1.265, "unit": "g"}
    ]}
  ]
}
